SMILES strings stand for the structures.

Consider one molecule from US20020132276A1, “FACS method for detecton of GPIIb/IIIa inhibitor dependent activators in plasma samples” (priority 1999, published 2002).

The test system of test [1] is platelet CD62. The test is described as follows: Detection of ADP as a GPIIb/IIIa DDPAS by DDPASFCA
To be noted: for + compound Med F12: + Compound A 1 μM; for no compound Med F12: no Compound A; for Delta Med F12: with minus without Compound A 1 μM. The format is cell-based, human. The procedure:
Adenosine diphosphate (ADP) was evaluated as a possible DDPAS as follows: Compound A (final concentration 1 μM) or vehicle was added to 25 μL of freshly prepared PRP in wells of a 96-well microtiter plate. Another set of wells received vehicle. After 10 minutes, 2.5 μL of from each well was transferred to microtiter wells containing only 20 μL of anti-CD62-PE. After incubation for 30 minutes, samples were analyzed by flow cytometry as in Example 1.

Test [2] concerns platelet CD62. The test is described as follows: DDPASFCA in alternative microtiter plates (Costar Serocluster #3897 versus #3898). The test is classed as cell-based, human. Particulars: with minus without Compound A 200 nM. The method, then: ADP and DPC38 were used as sources of DDPASs. 2 μL of citrated PRP (DPC3) was added to either Costar Serocluster® 96 well V-bottom microtiterplates (#3897) or #3898 microtiter plates (Costar Serocluster®) (rated as “hydrophilic” in nature by the manufacturer). Platelets were then treated with and without Compound A (200 nM) with the indicated concentrations of ADP. Similarly, DDPAS positive PRP (DPC38) was added to wells of both types of plates and treated with and without Compound A (200 nM). Reactions were incubated without shaking for 120 minutes. After this time, 20 μL of phycoerythrin conjugated anti-CD62 (anti-CD62-PE, Bectin Dickinson) was added. After 30 minutes the samples were diluted with 150 μL flow buffer and bound anti-CD62-PE measured as described in Example 1.
Delta SC=Delta Fluorescence for Costar Serocluster microtiter plates
Delta H=Delta Fluorescence for H3898 microtiter plates

Where [3] appears, read: platelet donor DPC3, ADP 100 uM.

Consider `Nc1ncnc2c1ncn2[C@@H]1O[C@H](COP(=O)(O)OP(=O)(O)O)[C@@H](O)[C@H]1O` [ADP, Adenosine diphosphate], for which the “+ compound Med F12” value in the test with platelet CD62 [1] (ADP 0.4 μM final) is on record as 20; in the test on platelet CD62 [1] (ADP 2 μM final) it was 89; in the test with platelet CD62 [1] (ADP 10 μM final), 208. The “no compound Med F12” value stood at 14 in the test with platelet CD62 [1] (ADP 0.4 μM final); 48 in the test on platelet CD62 [1] (ADP 2 μM final); 126 with platelet CD62 [1] (ADP 10 μM final, PRP, 10 minutes). Besides, the “Delta Med F12” value in the test on platelet CD62 [1] (ADP 0.4 μM final) was found to be 5; in the test with platelet CD62 [1] (ADP 2 μM final), 40; in the test with platelet CD62 [1] (ADP 10 μM final) it was 82. Besides, the “Delta CS (Delta Fluorescence for Costar Serocluster microtiter plates)” value is on record as 89 in the test on platelet CD62 [2] (platelet donor DPC3, ADP 10 uM) and 82 in the test with platelet CD62 [2] (setting [3]). Besides, the “Delta H (Delta Fluorescence for H3898 microtiter plates)” value amounted to 157 in the test on platelet CD62 [2] (platelet donor DPC3, ADP 10 uM) and 168 in the test on platelet CD62 [2] (setting [3]).
